Source: ChEMBL document CHEMBL4627399, “Synthesis and Structure-Activity Relationships of 5'-Aryl-14-alkoxypyridomorphinans: Identification of a μ Opioid Receptor Agonist/δ Opioid Receptor Antagonist Ligand with Systemic Antinociceptive Activity and Diminished Opioid Side Effects” (J Med Chem, 2020)
Active and inactive are the calls of the source. The rule behind the calls is not given here.

Columns and labels:
[1] = target: T1, Mu-type opioid receptor (Homo sapiens, UniProt P35372); assay: biochemical; type: cell-based, CHO
[2] = target: T2, Delta-type opioid receptor (Homo sapiens, UniProt P41143); assay: Displacement of [3H]-diprenorphine from human delta opioid receptor expressed in CHO cell membranes incubated for 1 hr by competition radioligand binding assay
[3] = target: T3, Kappa-type opioid receptor (Homo sapiens, UniProt P41145); assay: Displacement of [3H]-diprenorphine from human kappa opioid receptor expressed in CHO cell membranes incubated for 1 hr by competition radioligand binding assay
[4] = target: T1, Mu-type opioid receptor; assay: Agonist activity at human mu opioid receptor expressed in CHO cell membranes assessed as stimulation of [35S]GTPgammaS binding incubated for 1 hr relative to DAMGO; type: functional
[5] = target: T2, Delta-type opioid receptor; assay: Antagonist activity at human delta opioid receptor expressed in CHO cell membranes assessed as reduction in SNC80-induced [35S]GTPgammaS binding preincubated for 5 mins followed by SNC80 addition and measured after 1 hr; type: functional
[6] = Stability in human liver microsomes at 1 uM measured up to 60 mins by LC-MS/MS analysis; type: ADME, Microsome; conditions: 1 h
[7] = target: T1, Mu-type opioid receptor; conditions: cho
[8] = target: T3, Kappa-type opioid receptor; assay: Agonist activity at human kappa opioid receptor expressed in CHO cell membranes incubated for 1 hr by [35S]GTPgammaS binding assay; type: functional; conditions: cho
[9] = target: T3, Kappa-type opioid receptor; assay: Agonist activity at human kappa opioid receptor expressed in CHO cell membranes assessed as stimulation of [35S]GTPgammaS binding incubated for 1 hr relative to […]; type: functional
[10] = system: Mus musculus; assay: Antinociceptive activity in iv dosed CD-1 mouse measured after 15 mins by warm water tail-flick assay; type: functional, organism-based
[11] = target: T1, Mu-type opioid receptor; assay: biochemical
[12] = Induction of tidal volume in CD-1 mouse up to 32 mg/kg, ip administered via bolus under 5% CO2 exposure for 7 mins and measured over 45 mins by whole body plethysmography; type: organism-based; conditions: in vivo
[13] = system: Mus musculus; assay: Antinociceptive activity in iv dosed CD-1 mouse measured after 10 to 180 mins by warm water tail-flick assay; type: functional, organism-based
[14] = system: Mus musculus; assay: Antinociceptive activity in CD-1 mouse at 1 to 10 mg/kg, iv measured after 15 to 90 mins by warm water tail-flick assay; type: functional, organism-based
[15] = system: Mus musculus; assay: Antinociceptive activity in naloxone induced CD-1 mouse at 32 mg/kg, sc measured over 4 hrs by warm water tail-flick assay; type: functional, organism-based
[16] = system: Mus musculus; assay: Antinociceptive activity in CD-1 mouse administered twice daily at 9 am and 5 pm for 3 days measured on day 4 by warm water tail-flick assay; type: functional
[17] = Induction of spontaneous withdrawal in CD-1 mouse assessed as effect on urine output at 32 mg/kg, sc administered twice daily at 9 am and 5 pm for 3 days and measured on day 4 for 30 mins; type: organism-based; conditions: in vivo
[18] = Induction of spontaneous withdrawal in CD-1 mouse assessed as effect on fecal output at 32 mg/kg, sc and administered twice daily at 9 am and 5 pm for 3 days and measured on day 4 for 30 mins; type: organism-based; conditions: in vivo
[19] = Induction of spontaneous withdrawal in CD-1 mouse assessed as paw tremors at 32 mg/kg, sc and administered twice daily at 9 am and 5 pm for 3 days and measured on day 4 for 30 mins; type: organism-based; conditions: in vivo, 0.5 h
[20] = Induction of spontaneous withdrawal in CD-1 mouse assessed as ptosis at 32 mg/kg, sc and administered twice daily at 9 am and 5 pm for 3 days and measured on day 4 for 30 mins; type: organism-based; conditions: in vivo, 0.5 h
[21] = Induction of spontaneous withdrawal in CD-1 mouse assessed as effect on number of droppings at 32 mg/kg, sc and administered twice daily at 9 am and 5 pm for 3 days and measured on day 4 for 30 mins; type: organism-based; conditions: in vivo, 0.5 h
[22] = Induction of spontaneous withdrawal in CD-1 mouse assessed as effect on jumping behavior at 32 mg/kg, sc and administered twice daily at 9 am and 5 pm for 3 days and measured on day 4 for 30 mins; type: organism-based; conditions: in vivo, 0.5 h
[23] = Induction of spontaneous withdrawal in CD-1 mouse assessed as effect on backward walking steps at 32 mg/kg, sc and administered twice daily at 9 am and 5 pm for 3 days and measured on day 4 for 30 mins; type: organism-based; conditions: in vivo, 0.5 h
[24] = Induction of spontaneous withdrawal in CD-1 mouse assessed as wet dog shakes at 32 mg/kg, sc and administered twice daily at 9 am and 5 pm for 3 days and measured on day 4 for 30 mins; type: organism-based; conditions: in vivo, 0.5 h
[25] = Induction of spontaneous withdrawal in naloxone-induced CD-1 mouse assessed as increase in urine output at 32 mg/kg, sc administered twice daily at 9 am and 5 pm for 3 days pretreated followed by naloxone challenge on day 4 at 4 hrs post compound dose and measured for 40 mins; type: organism-based; conditions: in vivo
[26] = Induction of spontaneous withdrawal in naloxone-induced CD-1 mouse assessed as increase in fecal pellets at 32 mg/kg, sc administered twice daily at 9 am and 5 pm for 3 days pretreated followed by naloxone challenge on day 4 at 4 hrs post compound dose and measured for 40 mins; type: organism-based; conditions: in vivo
[27] = Induction of physical dependence in naloxone-induced CD-1 mouse assessed as increase in jumping behavior at 32 mg/kg, sc administered twice daily at 9 am and 5 pm for 3 days pretreated followed by naloxone challenge on day 4 at 4 hrs post compound dose and measured for 40 mins; type: organism-based; conditions: in vivo
[28] = Induction of physical dependence/precipitated withdrawal in naloxone-induced CD-1 mouse assessed as overall withdrawal score at 32 mg/kg, sc administered twice daily at 9 am and 5 pm for 3 days pretreated followed by naloxone challenge on day 4 at 4 hrs post compound dose and measured for 40 mins; type: organism-based; conditions: in vivo
[29] = Induction of respiratory depression in CD-1 mouse assessed as reduction in respiratory rate at 32 mg/kg, ip measured over 45 mins by plethysmography; type: organism-based; conditions: in vivo
[30] = Induction of respiratory depression in CD-1 mouse assessed as reduction in tidal volume at 32 mg/kg, ip measured over 45 mins by plethysmography; type: organism-based; conditions: in vivo
[31] = Induction of respiratory depression in CD-1 mouse assessed as reduction in minute ventilation at 32 mg/kg, ip measured over 45 mins by plethysmography; type: organism-based; conditions: in vivo
[32] = Reward liability in CD-1 mouse assessed as increase in conditioned place preference at 20 mg/kg, sc administered for 5 days and measured on day 5 for 15 mins; type: ADME, organism-based; conditions: in vivo
[33] = Reward liability in CD-1 mouse assessed as increase in conditioned place aversion at 20 mg/kg, sc administered for 5 days and measured on day 5 for 15 mins; type: ADME, organism-based; conditions: in vivo, 0.25 h

Q: With `Oc1ccc2c3c1O[C@H]1c4ncc(-c5ccc(Cl)cc5)cc4C[C@@]4(OCCCc5ccncc5)[C@@H](C2)N(CC2CC2)CC[C@]314` as the molecule, how does the Ki [1] read?
A: 0.00537 µM

Q: What about the Ki [2] of the same molecule?
A: 0.00524 µM

Q: What about the Ki [3] of the same molecule?
A: 0.0103 µM

Q: What about the Emax [4] of the same molecule?
A: inactive

Q: What about the IC50 [5] of the same molecule?
A: 0.00469 µM

Q: And the Stability [6]?
A: Stable

Q: And the EC50 [7]?
A: Not Active

Q: For `Oc1ccc2c3c1O[C@H]1c4ncc(-c5ccc(Cl)cc5)cc4C[C@@]4(OCc5ccc6ccccc6n5)[C@@H](C2)N(CC2CC2)CC[C@]314`, which Ki [1] is on record?
A: 0.799 µM

Q: And the Ki [2]?
A: 0.0325 µM

Q: What about the Ki [3] of the same molecule?
A: 0.031 µM

Q: And the Emax [4]?
A: inactive

Q: And the IC50 [5]?
A: 0.0108 µM

Q: And the Stability [6]?
A: Stable

Q: And the EC50 [7]?
A: Not Active

Q: Which Ki [1] does the source give for `Cc1nnc(-c2cnc3c(c2)C[C@@]2(OCCCc4ccccc4)[C@H]4Cc5ccc(O)c6c5[C@@]2(CCN4CC2CC2)[C@H]3O6)o1` here?
A: 0.00318 µM

Q: What about the Ki [2] of the same molecule?
A: 0.00812 µM

Q: What about the Ki [3] of the same molecule?
A: 0.0148 µM

Q: What about the IC50 [5] of the same molecule?
A: < 0.00017 µM

Q: What about the EC50 [8] of the same molecule?
A: Not Active

Q: And the Emax [9]?
A: inactive

Q: And the Activity [10]?
A: Dose-dependent effect

Q: What about the Stability [6] of the same molecule?
A: Stable

Q: And the EC50 [11]?
A: 0.0175 µM

Q: Which results are given for `Oc1ccc2c3c1O[C@H]1c4ncc(-c5ccc(Cl)cc5)cc4C[C@@]4(OCCOc5ccccc5)[C@@H](C2)N(CC2CC2)CC[C@]314`?
A: Ki [1]: 0.819 µM; Ki [2]: 0.172 µM; Ki [3]: 0.0213 µM; Emax [4]: inactive; IC50 [5]: 0.0254 µM; Stability [6]: Stable; EC50 [7]: Not Active

Q: For `COc1cccc(-c2cnc3c(c2)C[C@@]2(OCCCc4ccccc4)[C@H]4Cc5ccc(O)c6c5[C@@]2(CCN4CC2CC2)[C@H]3O6)c1`, which Ki [2] is on record?
A: 0.048 µM

Q: And the Ki [3]?
A: 0.103 µM

Q: What about the IC50 [5] of the same molecule?
A: 0.0024 µM

Q: And the EC50 [8]?
A: Not Active

Q: And the Emax [9]?
A: inactive

Q: What about the Activity [12] of the same molecule?
A: Toxic

Q: What about the Activity [13] of the same molecule?
A: Dose-dependent effect

Q: What about the Activity [14] of the same molecule?
A: Active

Q: And the Activity [15]?
A: inactive

Q: And the ED50 [16]?
A: 25.4 mg/kg

Q: And the Activity [17]?
A: Non-Toxic

Q: And the Activity [18]?
A: Non-Toxic

Q: What about the Activity [19] of the same molecule?
A: Non-Toxic

Q: What about the Activity [20] of the same molecule?
A: Non-Toxic

Q: What about the Activity [21] of the same molecule?
A: Non-Toxic

Q: What about the Activity [22] of the same molecule?
A: Non-Toxic

Q: What about the Activity [23] of the same molecule?
A: Non-Toxic

Q: What about the Activity [24] of the same molecule?
A: Non-Toxic

Q: What about the Activity [25] of the same molecule?
A: Toxic

Q: And the Activity [26]?
A: Toxic

Q: And the Activity [27]?
A: Non-Toxic

Q: And the Activity [28]?
A: Toxic

Q: And the Activity [29]?
A: Non-Toxic

Q: What about the Activity [30] of the same molecule?
A: Non-Toxic

Q: And the Activity [31]?
A: Non-Toxic

Q: And the Activity [32]?
A: Non-Toxic

Q: What about the Activity [33] of the same molecule?
A: Non-Toxic

Q: And the Stability [6]?
A: Stable

Q: With `Oc1ccc2c3c1O[C@H]1c4ncc(-c5ccccc5)cc4C[C@@]4(OCCCc5ccncc5)[C@@H](C2)N(CC2CC2)CC[C@]314` as the molecule, how does the Ki [1] read?
A: 0.00382 µM

Q: And the Ki [2]?
A: 0.0292 µM

Q: And the Ki [3]?
A: 0.0219 µM

Q: And the Emax [4]?
A: inactive

Q: And the IC50 [5]?
A: < 0.00051 µM

Q: What about the Stability [6] of the same molecule?
A: Stable

Q: What about the EC50 [7] of the same molecule?
A: Not Active

Q: With `Oc1ccc2c3c1O[C@H]1c4ncc(-c5cn[nH]c5)cc4C[C@@]4(OCCCc5ccccc5)[C@@H](C2)N(CC2CC2)CC[C@]314` as the molecule, how does the Ki [1] read?
A: 0.121 µM

Q: And the Ki [2]?
A: 0.257 µM

Q: What about the Ki [3] of the same molecule?
A: 0.0298 µM

Q: What about the IC50 [5] of the same molecule?
A: 0.00062 µM

Q: And the EC50 [8]?
A: Not Active

Q: What about the Emax [9] of the same molecule?
A: inactive

Q: And the Stability [6]?
A: Stable

Q: And the EC50 [11]?
A: 0.00329 µM

Q: For `COc1ccccc1-c1cnc2c(c1)C[C@@]1(OCCCc3ccccc3)[C@H]3Cc4ccc(O)c5c4[C@@]1(CCN3CC1CC1)[C@H]2O5`, which Ki [1] is on record?
A: 0.0619 µM

Q: What about the Ki [2] of the same molecule?
A: 0.0297 µM

Q: And the Ki [3]?
A: 0.126 µM

Q: What about the IC50 [5] of the same molecule?
A: 0.00079 µM

Q: What about the EC50 [8] of the same molecule?
A: Not Active

Q: And the Emax [9]?
A: inactive

Q: And the Stability [6]?
A: Stable

Q: What about the EC50 [11] of the same molecule?
A: 0.00718 µM
